Reference: ChEMBL document CHEMBL3832060, “DailyMed|setid=39945812-f776-4b13-8199-e846e37aa101 | TRAMADOL HYDROCHLORIDE AND ACETAMINOPHEN - tramadol hydrochloride and acetaminophen tablet, film coated|Cadila Healthcare Limited”

Assay: clinical
Conditions: human, in vivo, po
Description: Evalaution of pharmacokinetic parameters of Acetaminophen following single oral co-administration of 325 mg Acetaminophen tablets with 37.5 mg Tramadol.

- Cmax: 4200 ng/mL
- Tmax: 0.9 h
- half-life: 2.5 h
Compound: CC(=O)Nc1ccc(O)cc1 [ACETAMINOPHEN]
